Tests used:
Type in all cases: in vivo
[1] = tested on: Zea mays (corn), cv. 'Lorenzo'; experiment: Post-emergence application of herbicide H2 (foramsulfuron) and safener by the tank mix method: crop damage; details: for Safener action as % damage reduction in crop plants: ZEAMA, versus herbicide alone
Text: (§1) Seeds of various crop plants and weed species were sown in sandy loam soil in round plastic pots of a diameter of 13 cm and covered with a layer of sandy loam of a thickness of about 1 cm. The pots were placed in a greenhouse under favorable growth conditions for a period of about two to three weeks, allowing the plants to reach a growth stage of 2 to 4 leaves. The herbicides in the form of liquid (for example emulsion concentrates) or dry (for example water-dispersible powders) formulations were mixed with a standard additive (based on rapeseed oil methyl ester), diluted with deionized water to the required concentrations and applied to the green parts of the plants and the uncovered part of the soil surface with a spray bar using a water application rate of 300 liters per hectare. In the experiment shown below, safener and the herbicide foramsulfuron were in each case used as 20 percent strength water-dispersible powder (results see table 1.2.1). The pots were placed in a greenhouse under favorable growth conditions. Visual scoring of the herbicidal action was carried out four weeks after the herbicide application. Evaluation was carried out on a percentage basis by comparison with untreated control plants (0%=no noticeable effect compared with the untreated plant, 100%=treated plant dies).

Amaranthus retroflexus [2] = experiment: Post-emergence application of herbicide H2 (foramsulfuron) and safener by the tank mix method: herbicidal action; details: four weeks
Text: as §1

Setaria viridis [3] = experiment: as above; details: four weeks
Text: as §1

[4] = tested on: Zea mays (corn), cv. 'Lorenzo'; experiment: Pre-emergence application of herbicide H1 (isoxaflutole) and safener by the tank mix method: crop damage; details: herbicide H1 (isoxaflutole) 100 g a.i./ha alone, no safener, pre-emergence; four weeks
Experimental: (§2) Seeds of various crop plants and weed species were sown in sandy loam soil in round plastic pots of a diameter of 13 cm and covered with a layer of sandy loam of a thickness of about 1 cm. Herbicides and safeners in the form of liquid (for example emulsion concentrates) or dry (for example water-dispersible powders) formulations were diluted with deionized water to the required concentrations and applied to the surface of the soil with a spray bar using a water application rate of 300 liters per hectare. In the experiment shown below, the safeners were used as 20 percent strength water-dispersible powders and the herbicide isoxaflutole was used as an aqueous suspension concentrate (see table 1.1.1). The pots were placed in a greenhouse under favorable growth conditions. Visual scoring of the herbicidal action was carried out four weeks after the herbicide application. Evaluation was carried out on a percentage basis by comparison with untreated control plants (0%=no noticeable effect compared with the untreated plant, 100%=treated plant dies).

Chenopodium album [5] = experiment: Pre-emergence application of herbicide H1 (isoxaflutole) and safener by the tank mix method: herbicidal action; details: herbicide H1 (isoxaflutole) 100 g a.i./ha alone, no safener, pre-emergence; four weeks
Experimental: as §2

Setaria viridis [6] = experiment: as above; details: herbicide H1 (isoxaflutole) 100 g a.i./ha alone, no safener, pre-emergence; four weeks
Experimental: as §2

[7] = tested on: Glycine max (soybean), cv. 'Lambert'; experiment: Pre-emergence application of herbicide H1 (isoxaflutole) after seed dressing with safener; details: untreated seed (no safener), herbicide H1 (isoxaflutole) 100 g a.i./ha pre-emergence; four weeks
Experimental: (§3) The number of crop plant seeds required for each application rate of safener was calculated. Sufficient seeds were weighed-out into glass bottles having a screw-on lid. The volume of the glass bottles was approximately twice that of the seeds weighed out.
(§4) The safeners were formulated as 20 percent strength water-dispersible powders. These formulations were weighed out to give the required application rates (g of a.i./kg of seed). The samples were added to the seed in the glass containers, and sufficient water to form a suitable seed dressing was then added. The glass bottles were closed and then mounted in an overhead shaker (which turns the bottles at moderate speed for a period of up to one hour) so that the seeds were uniformly covered with the seed dressing. The bottles were opened and the seed was ready for use in pre-emergence or post-emergence experiments, as described below.
(§5) The seeds which had been treated with safeners and untreated seeds as controls were sown in sandy loam soil in round plastic pots of a diameter of 13 cm and covered with a layer of sandy loam of a thickness of about 1 cm. The herbicides in the form of liquid (for example emulsion concentrates) or dry (for example water-dispersible powders) formulations were diluted with deionized water to the required concentrations and applied to the surface of the soil with a spray bar using a water application rate of 300 liters per hectare. In the two experiments shown below (results see tables 2.2.1 and 2.2.2), the herbicide isoxaflutole was used as an aqueous suspension concentrate.
(§6) The pots were placed in a greenhouse under favorable growth conditions. Visual scoring of the herbicidal action was carried out four weeks after the herbicide application. Evaluation was carried out on a percentage basis by comparison with untreated control plants (0%=no noticeable effect compared with the untreated plant, 100%=treated plant dies).

[8] = tested on: Zea mays (corn), cv. 'Lorenzo'; experiment: as above; details: untreated seed (no safener), herbicide H1 (isoxaflutole) 100 g a.i./ha pre-emergence; four weeks
Experimental: as §3, §4, §5, §6

[9] = tested on: Zea mays (corn), cv. 'Lorenzo'; experiment: Post-emergence application of herbicide H2 (foramsulfuron) after seed dressing with safener; details: untreated seed (no safener), herbicide H2 (foramsulfuron) 40 g a.i./ha post-emergence; four weeks
Experimental: The number of crop plant seeds required for each application rate of safener was calculated. Sufficient seeds were weighed-out into glass bottles having a screw-on lid. The volume of the glass bottles was approximately twice that of the seeds weighed out. The safeners were formulated as 20 percent strength water-dispersible powders. These formulations were weighed out to give the required application rates (g of a.i./kg of seed). The samples were added to the seed in the glass containers, and sufficient water to form a suitable seed dressing was then added. The glass bottles were closed and then mounted in an overhead shaker (which turns the bottles at moderate speed for a period of up to one hour) so that the seeds were uniformly covered with the seed dressing. The bottles were opened and the seed was ready for use in pre-emergence or post-emergence experiments, as described below. The seeds treated with safener and untreated seeds were sown in sandy loam soil in round plastic pots of a diameter of 13 cm and covered with a layer of sandy loam of a thickness of about 1 cm. The pots were placed in a greenhouse under favorable growth conditions for a period of about two to three weeks, allowing the plants to reach a growth stage of 2 to 4 leaves. The herbicides in the form of liquid (for example emulsion concentrates) or dry (for example water-dispersible powders) formulations were mixed with a standard additive (based on rapeseed oil methyl ester), diluted with deionized water to the required concentrations and applied to the green parts of the plants and the uncovered part of the soil surface with a spray bar using a water application rate of 300 liters per hectare. In the experiment shown below, the herbicide foramsulfuron was used as 20 percent strength water-dispersible powder (results see table 2.3.1). The pots were placed in a greenhouse under favorable growth conditions. Visual scoring of the herbicidal action was carried out four weeks after the herbicide application. Evaluation was carried out on a percentage basis by comparison with untreated control plants (0%=no noticeable effect compared with the untreated plant, 100%=treated plant dies).

[10] = tested on: Zea mays (corn), cv. 'Lorenzo'; experiment: Post-emergence application of herbicide H3 (glufosinate-ammonium) and safener by the tank mix method: crop damage; details: herbicide H3 (glufosinate-ammonium) 250 g a.i./ha alone, no safener, post-emergence; four weeks
Text: (§7) Seeds of various crop plants and weed species were sown in sandy loam soil in round plastic pots of a diameter of 13 cm and covered with a layer of sandy loam of a thickness of about 1 cm. The pots were placed in a greenhouse under favorable growth conditions for a duration of about two to three weeks, allowing the plants to reach a growth stage of 2 to 4 leaves. The herbicides, in the form of liquid (for example emulsion concentrates, aqueous solutions) or dry (for example water-dispersible powders) formulations, were diluted with deionized water to the required concentrations and applied to the green parts of the plants and the uncovered part of the surface of the soil with a spray bar using a water application rate of 300 liters per hectare. In the experiment shown below, the safeners were used as 20 percent strength water-dispersible powders and the herbicide glufosinate-ammonium as a commercial 20 percent strength aqueous surfactant-containing solution (results see table 1.2.2).
(§8) The pots were placed in a greenhouse under favorable growth conditions. Visual scoring of the herbicidal action was carried out four weeks after the herbicidal application. Evaluation was carried out on a percentage basis by comparison with untreated control plants (0%=no noticeable effect compared with the untreated plant, 100%=treated plant dies).

Amaranthus retroflexus [11] = experiment: Post-emergence application of herbicide H3 (glufosinate-ammonium) and safener by the tank mix method: herbicidal action; details: herbicide H3 (glufosinate-ammonium) 250 g a.i./ha alone, no safener, post-emergence; four weeks
Text: as §7, §8

Chenopodium album [12] = experiment: as above; details: herbicide H3 (glufosinate-ammonium) 250 g a.i./ha alone, no safener, post-emergence; four weeks
Text: as §7, §8

[13] = safener 250 g a.i./ha + herbicide H2 (foramsulfuron) 40 g a.i./ha, post-emergence tank mix
[14] = safener 250 g a.i./ha + herbicide H2 (foramsulfuron) 40 g a.i./ha, post-emergence tank mix, visual scoring four weeks after application
[15] = herbicide H2 (foramsulfuron) 40 g a.i./ha alone, no safener, post-emergence

## O=C(O)C=Cc1ccccc1F [Comp. 146, 2-fluorocinnamic acid]
[1]; [13]
  Safener action as % damage reduction in crop plants: 72%
[1]; [14]
  % damage in ZEAMA: 10%
Amaranthus retroflexus [2]; [13]
  Herbicidal action as % damage in AMARE: 98%
Setaria viridis [3]; [13]
  Herbicidal action as % damage in SETVI: 92%

## COc1ccc(C=CC(=O)O)cc1 [Comp. 154, 4-methoxycinnamic acid]
[1]; [13]
  Safener action as % damage reduction in crop plants: 67%
[1]; [14]
  % damage in ZEAMA: 12%
Amaranthus retroflexus [2]; [13]
  Herbicidal action as % damage in AMARE: 96%
Setaria viridis [3]; [13]
  Herbicidal action as % damage in SETVI: 95%

## CCOC(=O)C=Cc1cccc(O)c1 [Comp. 191, ethyl 3-hydroxycinnamate]
[1]; [13]
  Safener action as % damage reduction in crop plants: 56%
[1]; [14]
  % damage in ZEAMA: 16%
Amaranthus retroflexus [2]; [13]
  Herbicidal action as % damage in AMARE: 99%
Setaria viridis [3]; [13]
  Herbicidal action as % damage in SETVI: 96%

## CS(=O)(=O)c1cc(C(F)(F)F)ccc1C(=O)c1cnoc1C1CC1 [Herbicide H1, isoxaflutole, reference compound]
[4]
  % damage in ZEAMA: 27%
Chenopodium album [5]
  Herbicidal action as % damage in CHEAL: 92%
Setaria viridis [6]
  Herbicidal action as % damage in SETVI: 95%
[7]
  % damage in GLXMA: 83%
[8]
  % damage in ZEAMA: 25%

## COc1cc(OC)nc(NC(=O)NS(=O)(=O)c2cc(NC=O)ccc2C(=O)N(C)C)n1 [Herbicide H2, foramsulfuron, reference compound]
[1]; herbicide H2 (foramsulfuron) 40 g a.i./ha alone, no safener, post-emergence, four weeks
  % damage in ZEAMA: 36%
Amaranthus retroflexus [2]; [15]
  Herbicidal action as % damage in AMARE: 94%
Setaria viridis [3]; [15]
  Herbicidal action as % damage in SETVI: 95%
[9]
  % damage in ZEAMA: 32%

## CP(=O)(O)CCC(N)C(=O)O (stereo not drawn) [Herbicide H3, glufosinate-ammonium, reference compound]
[10]
  % damage in ZEAMA: 62%
Amaranthus retroflexus [11]
  Herbicidal action as % damage in AMARE: 90%
Chenopodium album [12]
  Herbicidal action as % damage in CHEAL: 92%

Source: US7838463B2, “Safeners based on acrylic-aliphatic carboxylic acid derivatives” (Bayer CropScience AG, priority 2003, dated 2010)
